Measured values from ChEMBL document CHEMBL3044797 (Crop Prot, 2008).
Converted amounts (≈) assume the structure as drawn.

How the values were obtained:
Fusarium graminearum [1] = test: Fungicidal activity against carbendazim-resistant Fusarium graminearum isolate; type: functional, organism-based
Fusarium graminearum [2] = test: Fungicidal activity against compound-resistant Fusarium graminearum isolate; type: functional, organism-based

For `CCOC(=O)/C(C#N)=C(/N)c1ccccc1`, the EC50 (Fusarium graminearum [1]) was 0.115 µg/mL (≈ 0.532 µM) and the EC50 (Fusarium graminearum [2]) was 0.14 µg/mL (≈ 0.647 µM).
